Test results taken from article doi:10.1101/2023.02.14.528391v1 (biorxiv, 2023).
Where two headings read alike, the source gives them in different places.

Target: hERG potassium channel (Homo sapiens, UniProt Q12809)
Test: in vitro

Chain of hERG potassium channel (Q12809 whole entry): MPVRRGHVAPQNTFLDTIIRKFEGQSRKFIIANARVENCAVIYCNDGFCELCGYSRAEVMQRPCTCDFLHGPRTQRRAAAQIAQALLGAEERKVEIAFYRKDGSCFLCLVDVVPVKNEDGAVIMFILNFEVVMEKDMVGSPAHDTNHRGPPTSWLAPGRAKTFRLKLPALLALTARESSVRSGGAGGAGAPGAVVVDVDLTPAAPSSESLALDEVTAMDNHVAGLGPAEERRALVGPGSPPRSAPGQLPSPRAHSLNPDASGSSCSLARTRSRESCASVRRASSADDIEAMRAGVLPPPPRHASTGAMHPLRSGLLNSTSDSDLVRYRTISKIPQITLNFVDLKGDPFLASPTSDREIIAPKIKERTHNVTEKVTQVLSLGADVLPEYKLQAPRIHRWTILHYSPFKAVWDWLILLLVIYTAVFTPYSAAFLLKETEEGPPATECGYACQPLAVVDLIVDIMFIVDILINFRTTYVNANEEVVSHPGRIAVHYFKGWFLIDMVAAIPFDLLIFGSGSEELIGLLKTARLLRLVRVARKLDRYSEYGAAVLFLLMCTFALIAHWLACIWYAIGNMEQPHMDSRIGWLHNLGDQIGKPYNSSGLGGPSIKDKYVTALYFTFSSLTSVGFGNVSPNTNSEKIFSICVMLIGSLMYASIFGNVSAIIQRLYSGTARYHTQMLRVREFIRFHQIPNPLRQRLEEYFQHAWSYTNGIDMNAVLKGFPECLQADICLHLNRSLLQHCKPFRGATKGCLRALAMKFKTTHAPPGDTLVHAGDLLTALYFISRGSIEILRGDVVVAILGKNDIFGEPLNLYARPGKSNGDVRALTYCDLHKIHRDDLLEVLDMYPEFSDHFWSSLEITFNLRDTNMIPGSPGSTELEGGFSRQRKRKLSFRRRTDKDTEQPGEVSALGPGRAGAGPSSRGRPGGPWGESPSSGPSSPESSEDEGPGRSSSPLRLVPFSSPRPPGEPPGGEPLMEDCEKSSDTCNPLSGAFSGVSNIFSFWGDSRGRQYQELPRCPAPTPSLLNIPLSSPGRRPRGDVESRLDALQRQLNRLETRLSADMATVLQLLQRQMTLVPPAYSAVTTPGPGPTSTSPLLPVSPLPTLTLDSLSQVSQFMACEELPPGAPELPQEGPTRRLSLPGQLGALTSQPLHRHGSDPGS

Compound | inhibition at 10 µM (% inhibition) | inhibition at 10 µM
CC(=Cc1ccccn1)C(=O)N(CCN(C)C)c1ccccc1 [s_11____2264406____11762612] | 18.8% | –
CN(C)CCN(Cc1nccn1C)c1nc(-c2ccccn2)nc2sccc12 [s_27____16636988____12321872] | 91.6% | –
CN(C)CCN(Cc1ccccc1)C(=O)c1cc(-c2ccccn2)ccc1Cl [s_527____284286____7794996] | 55% | –
CN(C)CCCN(C)Cc1c(-c2ccccc2F)nn(C)c1Cl [s_270004____10205916____16947572] | 17.6% | –
CN(C)CCN(Cc1ccccc1F)C(=O)N1CCSc2ncccc21 [s_272164____9389146____17325014] | 37.3% | –
COCCN(CCN(C)C)Cc1c(Cl)cccc1Oc1ccccc1 [s_270004____10206068____8363900] | 99% | –
CN(Cc1sccc1Cl)C[C@H]1CCCCN1C(=O)c1ncccc1F | 27.4% | –
Cc1cccc(CN(CCN(C)C)C(=O)C2=Cc3ccc(Cl)cc3OC2)c1 [s_22____3218898____13770932] | 94.3% | –
CN(C)CCN(Cc1ccccc1F)C(=O)c1nccc2ncccc12 [s_527____7348186____14775532] | 33.1% | –
CN(C)CCC(Sc1ccncc1F)c1ccccc1 (stereo not drawn) [s_7____14325654____13940010] | 47.3% | –
Cc1cc2nc(Cl)nc(N(CCN(C)C)Cc3nccn3C)c2s1 [s_27____16636988____12112620] | 71.2% | –
CN(C)CCN(Cc1ccc(F)cc1F)C(=O)c1cc(Br)ncc1Cl [s_11____4836304____10207328] | 28.7% | –
CN(C)CCN(Cc1nccn1C)c1nc2cc(Cl)ccc2s1 [s_27____16636988____14057938] | 89.1% | –
CN(C)CCCN(Cc1ccc(Cl)c(Cl)c1)c1cnc2ccccc2n1 [s_27____7425384____262944] | 93.6% | –
Cc1ccc(C(=O)N(CCN(C)C)Cc2ccccc2)c2ncccc12 [s_527____284286____13308974] | 69.2% | –
CN(C)CCN(CCc1ccccc1)C(=O)c1csc2cc(Cl)cnc12 [s_11____764634____11618976] | 88.2% | –
CN(C)CCN(Cc1ccccc1F)C(=O)Cc1c[nH]c2nccc(Cl)c12 [s_22____1322108____13142180] | – | 38.7%
CN(C)CCn1nc(-c2ccccn2)c2ccccc2c1=O [GMD_13601] | 16.6% | –
COc1c(Cl)cc(C(=O)N(CCN(C)C)C2CCCCC2)c2ncccc12 [s_22____4639446____15428718] | 42.7% | –
COCCN(CCN(C)C)C(=O)c1cccnc1Oc1ccc(Cl)cc1Cl [s_22____3489604____2009120] | 48.6% | –
CN(C)CCCN(Cc1ccc(Cl)c(Cl)c1)C(=O)c1nccc2ncccc12 [s_527____1500312____14775532] | 40% | –
CN(C)CCN(Cc1nccn1C)c1cc(C(F)F)nc2ccc(Cl)cc12 [s_27____16636988____10213920] | 61% | –
CC1CCCCC1N=c1scc(-c2ccnn2C)n1N=Cc1ccc(Cl)cn1 (stereo not drawn) [s_1____86334____13026574____11759950] | -2.58% | –
CN(C)CCCN(Cc1ccc(Cl)c(Cl)c1)C(=O)c1ccn2c1CSCC2 [s_527____1500312____16910956] | 66.8% | –
CN(C)CCN(Cc1ccccc1)C(=O)c1ncccc1Cl [s_11____117338____10437082] | 9.12% | –
CN(C)CCN(Cc1ccccc1F)C(=O)c1cccc2ncccc12 [s_527____7348186____237975] | 1.57% | –
CN(C)CCN(Cc1cccc(F)c1)C(=O)CSc1nc2ccccc2n1C [s_22____2224108____339636] | 75.6% | –
CN(C)CCN(Cc1ccc(F)c(F)c1)C(=O)c1ccnc(Cl)c1Cl [s_22____2224104____12421166] | 23.5% | –
CN(C)CCN(Cc1ccccc1F)C(=O)c1cccc2cccnc12 [s_11____4836284____101939] | 55% | –
CN(C)CCCn1nc(-c2ccccc2Cl)c2ccccc2c1=O [GMD_16666] | 10.6% | –
